This passage reports IC50 results from patent publication US20220202929A1, “DRUG-RESISTANT INFLUENZA VIRUS STRAINS” (President and Fellows of Harvard College, priority 2019, published 2022).

What all share (assay type): cell-based, influenza A virus
In assay [1] the test system is M2 S31N mutant influenza virus strain.
Assay [2] concerns M2 S31N/G34E mutant influenza virus strain.
The subject of assay [3] is M2 S31N/L46P mutant influenza virus strain.
Assay [4] deals with NA-H274Y mutant influenza virus strain.

SMILES strings stand for the structures. A value given as a limit tells only on which side of the number the result lay.

As usually defined, the IC50 is the point on the concentration scale where inhibition reaches its midpoint. Read a low IC50 as inhibition by little substance.

With `NC12CC3CC(CC(C3)C1)C2` [amantadine], the IC50 in assay [1] was 24.7 µM; in assay [2], more than 100 µM; in assay [3], 65.9 µM.
With `CCOC(=O)C1=C[C@@H](OC(CC)CC)[C@H](NC(C)=O)[C@@H](N)C1` [oseltamivir], the midpoint of inhibition in assay [4], the IC50, lay at 2.67 µM.
